From patent publication US20200345761A1, “PREVENTIVE AND/OR THERAPEUTIC AGENT FOR DEMENTIA” (MITOS CO., LTD., priority 2017, published 2020)

Assays:
Alzheimer-type dementia = details: cited from earlier work
[1] = tested on: Alzheimer-type dementia patients
Source text: Patients were selected on the basis of the following three criteria.
(1) Deterioration in the score occurs such that the ADAS-cog score based on formula [70−(MMSE×2.33)] (J. Caro et al., BMC Neurol 2002; 2:6.) or the ADAS-cog score calculated in terms of MMSE (Mini-Mental State Examination) exceeds 10.
Finally, 11 patients were selected, and treated with H2 gas.
Since the probability of suffering complications increases as the concentration of lithium in blood increases, the dosage of lithium carbonate was reduced (W. S. Waring, Toxicol Rev 2006; 25:221-230.). The patients of the treatment group were given oral administration of a 200 mg tablet of lithium carbonate (Li2CO3) (Mitsubishi Tanabe Pharma Corporation) twice a day and inhalation of 3% H2 twice a day. The test period was 6 months. As the gas containing H2, H2 gas (3%) containing 21% oxygen was generated using a portable H2 generator (Nishijima/Ecore Gas Hydrogen Generator) (H. Ono et al., J Stroke Cerebrovasc Dis 2017; 26:2587-2594.). […] Since lithium carbonate is used as a therapeutic agent for depression and mania (bipolar disorder), and it was reported that patients who ingested lithium carbonate less likely developed dementia, lithium carbonate was used in this Example.
The patients were evaluated by a blind method using the ADAS-cog score.
The ADAS-cog test was conducted every 1 to 2 months. The efficacy of treatment with respect to the ADAS-cog score was determined by comparing the ADAS-cog score at the start of the test with two or three tests during treatment.

[2] = inhalation of H2 gas (3%) containing 21% oxygen; cited from earlier work
dementia patients = details: hydrogen gas about 3 to 4% inhaled 1 hour twice a day, 6-month treatment period, six patients
Source text: Patients (outpatients in Iryohojin Shadanshinwakai Nishijima Byoin (Numazu-shi, Shizuoka)) in whom rapid deterioration (deterioration by 3 or more points over 1 year) in a cognitive function test such as MMSE or ADAS-cog occured although existing four agents for dementia were used over a long period of time, and improvement is not attained by other ordinary treatment methods.
Patients for whom it is considered difficult to repeatedly inhale hydrogen gas over a long period of time because of severe medical disease, chronic chest disease (chronic obstructive pulmonary disease (COPD), asthma or the like), mouth inflammation or the like.
Patients for whom it is determined from a score in the ADAS-cog cognitive function test that a therapeutic effect is achieved.

[3] = 11 patients including the unresponsive patient, at completion of H2 treatment

COc1cc2c(cc1OC)C(=O)C(CC1CCN(Cc3ccccc3)CC1)C2 (centres unmarked) [Donepezil]
ADAS-cog score of the administration group (Alzheimer-type dementia; after 6 months): turned back to the initial value | Change of ADAS-cog score (Alzheimer-type dementia; after 6 weeks): −3 points

[HH] [H2, hydrogen gas]
Average change of ADAS-cog score with respect to the initial score [1, 3]: −3.4 | Average change of ADAS-cog score with respect to the worst score [1, 3]: −8.5 | Patients whose ADAS-cog score was improved (decreased) from that at the start time ([1]; at the end of the H2 treatment period, 11 patients): seven | Worst score: B (ADAS-cog), average ([1]; average of 11 patients): 39.2 | Final score: C (ADAS-cog), average ([1]; average of 11 patients at completion of H2 treatment): 30.7 | Patients with improvement in the ADAS-cog score ([1]; combination therapy with H2 and lithium, Alzheimer-type dementia patients): 10 out of 11 | Blood concentration [2]: confirmed to increase | Therapeutic effect judged from ADAS-cog score (effective cases) (dementia patients): effective in all of the six patients

O=C([O-])[O-].[Li+].[Li+] [lithium, lithium carbonate, reference compound]
Cognitive function (ADAS-cog) with lithium used alone ([1]; after H2 treatment was stopped, lithium alone): the cognitive function was not improved
